# Measured values taken from patent publication US20080221086A1, “Novel Inhibitors of Glutaminyl Cyclase” (PROBIODRUG AG, priority 2006, published 2008).
# Read-outs that look alike come from different tables or passages of the source.
# Molecular target: hQC (Homo sapiens, UniProt Q16769)
# Assay: Fluorometric assay of glutaminyl cyclase (QC) inhibition, H-Gln-βNA or H-Gln-AMC substrate
# Format: biochemical
# How it was run: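 Fluorometric coupled assays at 30° C in Tris/HCl pH 8.0 with EDTA and pyroglutamyl aminopeptidase used either 0.2 mM H-Gln-βNA (320/410 nm) or H-Gln-AMC (380/460 nm), started by QC. Screening used 4 mM inhibitor at substrate 1 KM. Ki came from fitting progress curves to competitive inhibition.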
# hQC, sequence (Q16769 29-361): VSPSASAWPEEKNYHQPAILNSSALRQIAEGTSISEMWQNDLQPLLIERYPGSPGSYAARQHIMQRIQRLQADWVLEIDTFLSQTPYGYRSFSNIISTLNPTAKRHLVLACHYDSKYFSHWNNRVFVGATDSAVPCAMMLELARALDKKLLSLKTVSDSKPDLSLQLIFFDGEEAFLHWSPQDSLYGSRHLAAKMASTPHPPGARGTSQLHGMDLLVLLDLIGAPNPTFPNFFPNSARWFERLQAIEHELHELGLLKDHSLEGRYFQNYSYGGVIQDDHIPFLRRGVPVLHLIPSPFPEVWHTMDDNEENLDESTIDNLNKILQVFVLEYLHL
Compound,IC50 (read-out: IC50) [µM],"IC50 (compound from preparative synthesis, purified by chromatography, fluorescent assay, read-out: IC50 hQC) [µM]"
"COC(=O)C(C)/N=C1\NC(=S)N(c2ccc3[nH]cnc3c2)C1c1ccc(C)cc1 (stereo not drawn) [Compound 320, Methyl 2-(1-(1H-benzo[d]imidazol-5-yl)-2-thioxo-5-p-tolylimidazolidin-4-ylideneamino)propanoate]",5.8,
"O=C1N/C(=N\CCC(c2ccccc2)c2ccccc2)C(c2cccc(F)c2)N1CCCn1ccnc1 (stereo not drawn) [Compound 113, 4-3,3-Diphenyl-propylimino-5-(3-fluoro-phenyl)-1-(3-imidazol-1-yl-propyl)-imidazolidin-2-one]",7.6,
"O=C1N/C(=N\c2ccc3c(c2)OCCO3)C(c2cccc(F)c2F)N1CCCn1ccnc1 (stereo not drawn) [Compound 31, 5-(2,3-Difluoro-phenyl)-4-2,3-dihydro-benzo1,4dioxin-6-ylimino-1-(3-imidazol-1-yl-propyl)-imidazolidin-2-one]",9.4,
"S=C1N/C(=N/Cc2ccccc2)C(c2cccc(Br)c2)N1c1ccc2[nH]cnc2c1 (stereo not drawn) [Compound 261, 1-(1H-Benzoimidazol-5-yl)-4-benzylimino-5-(3-bromo-phenyl)-imidazolidine-2-thione]",6.7,
"Cc1nc[nH]c1C1/C(=N/C2CCc3ccccc32)NC(=O)N1c1ccc2nc[nH]c2c1 (stereo not drawn) [Compound 257, 3-(3H-Benzoimidazol-5-yl)-5-indan-1-ylimino-5′-methyl-1,3,4,5-tetrahydro-3′H-4,4′biimidazolyl-2-one]",0.4,
"COc1cc(C/N=C2\NC(=O)N(CCCn3ccnc3)C2c2ccccc2F)cc(OC)c1OC (stereo not drawn) [Compound 28, 5-(2-Fluoro-phenyl)-1-(3-imidazol-1-yl-propyl)-4-3,4,5-trimethoxy-benzylimino-imidazolidin-2-one]",3.1,
"O=C(C/N=C1\NC(=O)N(CCCn2ccnc2)C1c1ccccc1Cl)N1CCc2ccccc2C1 (stereo not drawn) [Compound 71, 5-(2-Chloro-phenyl)-4-2-(3,4-dihydro-1H-isoquinolin-2-yl)-2-oxo-ethylimino-1-(3-imidazol-1-yl-propyl)-imidazolidin-2-one]",4,
"S=C1NC(=Nc2ccccc2Br)C(c2ccc3[nH]ccc3c2)N1c1ccc2nc[nH]c2c1 (stereo not drawn) [Compound 291, 1-(3H-Benzoimidazol-5-yl)-4-2-bromo-phenylimino-5-(1H-indol-5-yl)-imidazolidine-2-thione]",4,
"O=C1CCCN1CCC/N=C1/NC(=O)N(c2ccc3[nH]cnc3c2)C1c1ccc2[nH]ccc2c1 (stereo not drawn) [Compound 289, 1-(1H-benzoimidazol-5-yl)-5-(1H-indol-5-yl)-4-3-(2-oxo-pyrrolidin-1-yl)-propylimino-imidazolidin-2-one]",0.004,
"S=C1N/C(=N\C2CCCc3ccccc32)C(c2cc(Br)cs2)N1c1ccc2nc[nH]c2c1 (stereo not drawn) [Compound 311, 1-(3H-Benzoimidazol-5-yl)-5-(4-bromo-thiophen-2-yl)-4-1,2,3,4-tetrahydro-naphthalen-1-ylimino-imidazolidine-2-thione]",5.8,
"CC1=CC(C)C(C2C(=NCC(=O)N3CCSCC3)NC(=O)N2c2ccc3[nH]cnc3c2)CC1 (stereo not drawn) [Compound 294, 1-(1H-Benzoimidazol-5-yl)-5-(2,4-dimethyl-cyclohex-3-enyl)-4-2-oxo-2-thiomorpholin-4-yl-ethylimino-imidazolidin-2-one]",1.3,
"CC(CC1/C(=N/C2CCCc3ccccc32)NC(=S)N1c1ccc2[nH]cnc2c1)CC(C)(C)C (stereo not drawn) [Compound 150, 1-(1H-Benzoimidazol-5-yl)-4-1,2,3,4-tetrahydro-naphthalen-1-ylimino-5-(2,4,4-trimethyl-pentyl)-imidazolidine-2-thione]",6.7,
"O=C1N/C(=N\CCC(c2ccccc2)c2ccccc2)C(c2cc(F)cc(F)c2)N1CCCn1ccnc1 (stereo not drawn) [Compound 108, 5-(3,5-Dihydro-phenyl)-4-3,3-diphenyl-propylimino-1-(3-imidazol-1-yl-propyl)-imidazolidin-2-one]",6.7,
"O=C1N/C(=N\CCc2cccs2)C(c2ccccc2F)N1CCCn1ccnc1 (stereo not drawn) [Compound 44, 5-(2-Fluoro-phenyl)-1-(3-imidazol-1-yl-propyl)-4-(2-thiophen-2-yl-ethylimino)-imidazolidin-2-one]",5.8,
"1-(1H-Benzoimidazol-5-yl)-5-benzo[c][1,2,5]-5-yl-4-2-bromo-phenylimino-imidazolidine-2-thione [Compound 295]",7.6,
"CC(C)C1/C(=N\C(C)(C)CC(C)(C)C)NC(=S)N1c1ccc2[nH]cnc2c1 (stereo not drawn) [Compound 178, 1-(1H-Benzoimidazol-5-yl)-5-isopropyl-4-1,1,3,3-tetramethyl-butylimino-imidazolidine-2-thione]",6.7,
"S=C1NC(=NCn2nnc3ccccc32)C(c2ccnc3ccccc23)N1c1ccc2nc[nH]c2c1 (stereo not drawn) [Compound 279, 1-(3H-Benzoimidazol-5-yl)-4-benzotriazol-1-ylmethylimino-5-quinolin-4-yl-imidazolidine-2-thione]",2.2,
"O=C1N/C(=N/CCc2c[nH]c3ccccc23)C(c2ccccc2Cl)N1CCCn1ccnc1 (stereo not drawn) [Compound 55, 5-(2-Chloro-phenyl)-1-(3-imidazol-1-yl-propyl)-4-2-(1H-indol-3-yl)-ethylimino-imidazolidin-2-one]",2.2,0.482

Compound,IC50 (read-out: IC50) [µM],"IC50 (compound from preparative synthesis, purified by chromatography, fluorescent assay, read-out: IC50 hQC) [µM]"
"O=C1N/C(=N/Cc2cccnc2)C(c2cc(F)cc(F)c2)N1CCCn1ccnc1 (stereo not drawn) [Compound 90, 5-(3,5-Difluoro-phenyl)-1-(3-imidazol-1-yl-propyl)-4-pyridin-3-ylmethylimino-imidazolidin-2-one]",8.5,
"O=C1NC(=NCC2CCCO2)C(c2cccc(F)c2F)N1CCCn1ccnc1 (stereo not drawn) [Compound 114, 5-(2,3-Difluoro-phenyl)-1-(3-imidazol-1-yl-propyl)-4-tetrahydro-furan-2-ylmethylimino-imidazolidin-2-one]",8.5,
"O=C1N/C(=N\C(c2ccccc2)c2ccccc2)C(CO)N1CCCn1ccnc1 (stereo not drawn) [Compound 85, 4-Benzhydrylimino-5-hydroxymethyl-1-(3-imidazol-1-yl-propyl)-imidazolidin-2-one]",6.7,
"O=c1c(C2/C(=N/c3cc(Cl)ccc3Cl)NC(=S)N2c2ccc3[nH]cnc3c2)coc2ccccc12 (stereo not drawn) [Compound 192, 3-{3-(1H-Benzoimidazol-5-yl)-5-2,5-dichloro-imidazolidin-4-yl}-chromen-4-one]",3.1,
"O=C(C/N=C1/NC(=O)N(c2ccc3nc[nH]c3c2)C1c1ccc2[nH]ccc2c1)N1CCC(O)CC1 (stereo not drawn) [Compound 248, 1-(3H-Benzoimidazol-5-yl)-4-2-(4-hydroxy-piperidin-1-yl)-2-oxo-ethylimino-5-(1H-indol-5-yl)-imidazolidin-2-one]",0.4,
"O=C1N/C(=N/Cn2nnc3ccccc32)C(c2cc3c(cc2Br)OCO3)N1c1ccc2nc[nH]c2c1 (stereo not drawn) [Compound 204, 1-(3H-Benzoimidazol-5-yl)-4-benzotriazol-1-ylmethylimino-5-(6-bromo-benzo1,3dioxol-5-yl)-imidazolidin-2-one]",0.4,
"CN(C)c1ccc(C2/C(=N/C3CCc4ccccc43)NC(=O)N2c2ccc3[nH]cnc3c2)cc1 (stereo not drawn) [Compound 242, 1-(1H-Benzoimidazol-5-yl)-5-(4-dimethylamino-phenyl)-4-indan-1-ylimino-imidazolidin-2-one]",0.004,
"O=C1CCCN1CCC/N=C1/NC(=O)N(c2ccc3[nH]cnc3c2)C1c1cccc(Br)c1 (stereo not drawn) [Compound 241, 1-(1H-Benzoimidazol-5-yl)-5-(3-bromo-phenyl)-4-3-(2-oxo-pyrrolidin-1-yl)-propylimino-imidazolidin-2-one]",0.004,
"CC1=CC(C)C(C2/C(=N/C(C)C(C)(C)C)NC(=S)N2c2ccc3nc[nH]c3c2)CC1 (stereo not drawn) [Compound 276, 1-(1H-Benzoimidazol-5-yl)-5-(2,4-dimethyl-cyclohex-3-enyl)-4-1,2,2-trimethyl-propylimino-imidazolidine-2-thione]",7.6,
"O=C1CCCN1CCC/N=C1/NC(=O)N(c2ccc3[nH]cnc3c2)C1c1cc2ccccc2s1 (stereo not drawn) [Compound 166, 5-Benzobthiophen-2-yl-1-(1H-benzoimidazol-5-yl)-4-3-(2-oxo-pyrrolidin-1-yl)-propylimino-imidazolidin-2-one]",0.4,
"CC(/N=C1\NC(=O)N(CCCn2ccnc2)C1c1cccc(F)c1F)c1ccccc1 (stereo not drawn) [Compound 9, 5-(2,3-Difluoro-phenyl)-1-(3-imidazol-1-yl-propyl)-4-1-phenyl-ethylimino-imidazolidin-2-one]",6.5,
"Cc1ccc2c(C3/C(=N\Cc4ccccc4)NC(=O)N3c3ccc4[nH]cnc4c3)c[nH]c2c1 (stereo not drawn) [Compound 230, 1-(1H-Benzoimidazol-5-yl)-4-benzylimino-5-(6-methyl-1H-indol-3-yl)-imidazolidin-2-one]",0.004,
"CC(C)(C)CC(C)(C)/N=C1\CN(c2ccc3nc[nH]c3c2)C(=S)N1 [Compound 286, 1-(3H-Benzoimidazol-5-yl)-4-1,1,3,3-tetramethyl-butylimino-imidazolidine-2-thione]",5.8,
"O=C1N/C(=N/CCc2c[nH]c3ccccc23)C(c2ccc(O)cc2)N1CCCn1ccnc1 (stereo not drawn) [Compound 64, 5-(4-Hydroxy-phenyl)-1-(3-imidazol-1-yl-propyl)-4-2-(1H-indol-3-yl)-ethylimino-imidazolidin-2-one]",1.3,
"C/N=C1/NC(=O)N(CCCn2ccnc2)C1c1ccc(O)cc1 (stereo not drawn) [Compound 17, 5-(4-Hydroxy-phenyl)-1-(3-imidazol-1-yl-propyl)-4-methylimino-imidazolidin-2-one]",5.8,
"Cc1ccc(C2/C(=N/c3c(Cl)cccc3Cl)NC(=S)N2c2ccc3nc[nH]c3c2)cc1 (stereo not drawn) [Compound 237, 1-(3H-Benzoimidazol-5-yl)-4-2,6-dichloro-phenylimino-5-p-tolyl-imidazolidine-2-thione]",7.6,
"O=C(C/N=C1/NC(=O)N(CCCn2ccnc2)C1c1ccccc1)N1CCc2ccccc2C1 (stereo not drawn) [Compound 66, 4-2-(3,4-Dihydro-1H-isoquinolin-2-yl)-2-oxo-ethylimino-1-(3-imidazol-1-yl-propyl)-5-phenyl-imidazolidin-2-one]",4,
